One block for each compound: values may come before it.
What was measured:
L929 = experiment: Cytotoxicity against mouse L929 cells assessed as reduction in cell viability after 24 hrs by MTT assay; assay type: cell-based; conditions: l929, 24 h
[1] = Selectivity ratio of CC30 for cytotoxicity against mouse L929 cells to IC50 for antiparasitic activity against Toxoplasma gondii RH infected in human Hs27 cells; assay type: toxicity, cell-based
Toxoplasma gondii [2] = experiment: (§1) Antiparasitic activity against Toxoplasma gondii ME49 tachyzoites infected in human Hs27 cells assessed as inhibition of parasitic growth preincubated for 24 hrs followed by [5,6-3H]uracil addition and measured after 72 hrs by liquid scintillation counting analysis; assay type: functional, organism-based
[3] = Selectivity ratio of CC30 for cytotoxicity against mouse L929 cells to IC50 for antiparasitic activity against Toxoplasma gondii Me49 infected in human Hs27 cells; assay type: toxicity, cell-based
[4] = Antioxidant activity assessed as DPPH radical scavenging activity incubated for 30 mins under dark condition by Uv-vis spectrophotometric method; assay type: functional
[5] = Potency index, ratio of butylated hydroxytoluene IC50 to test compound IC50 for antioxidant activity assessed as DPPH radical scavenging activity; assay type: functional
Tyrosinase = molecular target: T1, Tyrosinase (Agaricus bisporus, UniProt O42713); experiment: Inhibition of mushroom tyrosinase using L-dopa as substrate by spectrophotometric method
T1 sequence (O42713 whole entry): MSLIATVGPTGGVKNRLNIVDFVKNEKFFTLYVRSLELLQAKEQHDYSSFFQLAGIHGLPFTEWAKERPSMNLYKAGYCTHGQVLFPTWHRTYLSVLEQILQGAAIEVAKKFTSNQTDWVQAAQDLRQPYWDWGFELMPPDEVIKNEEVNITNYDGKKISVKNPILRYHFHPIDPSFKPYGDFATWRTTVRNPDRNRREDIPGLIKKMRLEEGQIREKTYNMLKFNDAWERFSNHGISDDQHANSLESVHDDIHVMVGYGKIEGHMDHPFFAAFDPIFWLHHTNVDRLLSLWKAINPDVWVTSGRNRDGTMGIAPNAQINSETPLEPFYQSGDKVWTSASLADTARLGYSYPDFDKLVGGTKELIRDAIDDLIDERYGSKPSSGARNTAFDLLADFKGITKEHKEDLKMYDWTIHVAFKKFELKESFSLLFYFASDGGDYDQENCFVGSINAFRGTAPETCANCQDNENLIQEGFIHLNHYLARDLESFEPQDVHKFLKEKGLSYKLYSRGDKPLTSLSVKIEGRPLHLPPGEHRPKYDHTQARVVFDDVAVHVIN

Toxoplasma gondii [6] = experiment: (§2) Antiparasitic activity against Toxoplasma gondii RH tachyzoites infected in human Hs27 cells assessed as inhibition of parasitic growth preincubated for 24 hrs followed by [5,6-3H]uracil addition and measured after 72 hrs by liquid scintillation counting analysis; assay type: functional, organism-based
[7] = Cytotoxicity against mouse L929 cells assessed as cell viability at 100 ug/ml after 24 hrs by MTT assay relative to control; assay type: cell-based; conditions: read-out: Activity
[8] = Cytotoxicity against mouse L929 cells assessed as cell viability at 400 ug/ml after 24 hrs by MTT assay relative to control; assay type: cell-based; conditions: read-out: Activity
[9] = Cytotoxicity against mouse L929 cells assessed as cell viability at 200 ug/ml after 24 hrs by MTT assay relative to control; assay type: cell-based; conditions: read-out: Activity
[10] = Cytotoxicity against mouse L929 cells assessed as cell viability at 50 ug/ml after 24 hrs by MTT assay relative to control; assay type: cell-based; conditions: read-out: Activity
[11] = Cytotoxicity against mouse L929 cells assessed as cell viability at 25 ug/ml after 24 hrs by MTT assay relative to control; assay type: cell-based; conditions: read-out: Activity
[12] = Cytotoxicity against mouse L929 cells assessed as cell viability at 12.5 ug/ml after 24 hrs by MTT assay relative to control; assay type: cell-based; conditions: read-out: Activity
[13] = Cytotoxicity against mouse L929 cells assessed as cell viability at 6.25 ug/ml after 24 hrs by MTT assay relative to control; assay type: cell-based; conditions: read-out: Activity
[14] = Cytotoxicity against mouse L929 cells assessed as cell viability at 3.125 ug/ml after 24 hrs by MTT assay relative to control; assay type: cell-based; conditions: read-out: Activity
[15] = Cytotoxicity against mouse L929 cells assessed as cell viability at 1.56 ug/ml after 24 hrs by MTT assay relative to control; assay type: cell-based; conditions: read-out: Activity
[16] = Cytotoxicity against mouse L929 cells assessed as cell viability at 0.78 ug/ml after 24 hrs by MTT assay relative to control; assay type: cell-based; conditions: read-out: Activity
Toxoplasma gondii [17] = experiment: as §2, with “reduction in parasite proliferation at 100 ug/mL” for “inhibition of parasitic growth”, “analysis relative to control” for “analysis”; assay type: functional; design: scale not given: the % may be the effect or the level left
Toxoplasma gondii [18] = experiment: as §1, with “reduction in parasite proliferation at 100 ug/mL” for “inhibition of parasitic growth”, “analysis relative to control” for “analysis”; assay type: functional; design: scale not given: the % may be the effect or the level left
Toxoplasma gondii [19] = experiment: (§3) Antiparasitic activity against Toxoplasma gondii RH tachyzoites infected in human Hs27 cells assessed as reduction in parasite proliferation at 50 ug/mL preincubated for 24 hrs followed by [5,6-3H]uracil addition and measured after 72 hrs by liquid scintillation counting analysis relative to control; assay type: functional; design: scale not given: the % may be the effect or the level left
Toxoplasma gondii [20] = experiment: as §3, with “ME49” for “RH”; assay type: functional; design: scale not given: the % may be the effect or the level left
Toxoplasma gondii [21] = experiment: (§4) Antiparasitic activity against Toxoplasma gondii RH tachyzoites infected in human Hs27 cells assessed as reduction in parasite proliferation at 25 ug/mL preincubated for 24 hrs followed by [5,6-3H]uracil addition and measured after 72 hrs by liquid scintillation counting analysis relative to control; assay type: functional; design: scale not given: the % may be the effect or the level left
Toxoplasma gondii [22] = experiment: as §4, with “ME49” for “RH”; assay type: functional; design: scale not given: the % may be the effect or the level left
Toxoplasma gondii [23] = experiment: as §3, with “12.5” for “50”; assay type: functional; design: scale not given: the % may be the effect or the level left
Toxoplasma gondii [24] = experiment: as §3, with “ME49” for “RH”, “12.5” for “50”; assay type: functional; design: scale not given: the % may be the effect or the level left
Toxoplasma gondii [25] = experiment: as §3, with “6.25” for “50”; assay type: functional; design: scale not given: the % may be the effect or the level left
Toxoplasma gondii [26] = experiment: as §3, with “ME49” for “RH”, “6.25” for “50”; assay type: functional; design: scale not given: the % may be the effect or the level left
Toxoplasma gondii [27] = experiment: as §3, with “3.125” for “50”; assay type: functional; design: scale not given: the % may be the effect or the level left
Toxoplasma gondii [28] = experiment: as §3, with “ME49” for “RH”, “3.125” for “50”; assay type: functional; design: scale not given: the % may be the effect or the level left
Toxoplasma gondii [29] = experiment: as §3, with “1.56” for “50”; assay type: functional; design: scale not given: the % may be the effect or the level left
Toxoplasma gondii [30] = experiment: as §3, with “ME49” for “RH”, “1.56” for “50”; assay type: functional; design: scale not given: the % may be the effect or the level left
Toxoplasma gondii [31] = experiment: as §3, with “0.78” for “50”; assay type: functional; design: scale not given: the % may be the effect or the level left
Toxoplasma gondii [32] = experiment: as §3, with “ME49” for “RH”, “0.78” for “50”; assay type: functional; design: scale not given: the % may be the effect or the level left
Toxoplasma gondii [33] = experiment: as §3, with “0.39” for “50”; assay type: functional; design: scale not given: the % may be the effect or the level left

SMILES: Nc1ccc(S(=O)(=O)Nc2ncccn2)cc1 [SULFADIAZINE]
CC30 (L929): >= 5000 uM
selectivity ratio [1]: 0.46
IC50 (Toxoplasma gondii [2]): 13000 µM
selectivity ratio [3]: 0.39

SMILES: Cc1cc(C(C)(C)C)c(O)c(C(C)(C)C)c1 [BUTYLATED HYDROXYTOLUENE]
IC50 [4]: 180 µM

SMILES: COc1cc(Cc2cnc(N)nc2N)cc(OC)c1OC [TRIMETHOPRIM]
CC30 (L929): 55.11 µM
IC50 (Toxoplasma gondii [6]): 41.8 µM
selectivity ratio [1]: 1.32
IC50 (Toxoplasma gondii [2]): 39.2 µM
selectivity ratio [3]: 1.4

SMILES: C(=N\Nc1nc(C23CC4CC(CC(C4)C2)C3)cs1)/c1cc2ccccc2s1
viability at 24 h, 100 ug/ml [7]: 89%
viability at 24 h, 400 ug/ml [8]: 76.8%
CC30 (L929): 1333.46 µM
IC50 (Toxoplasma gondii [6]): 51.9 µM
viability at 24 h, 200 ug/ml [9]: 81.8%
viability at 24 h, 50 ug/ml [10]: 90.7%
viability at 24 h, 25 ug/ml [11]: 98.3%
viability at 24 h, 12.5 ug/ml [12]: 96.5%
viability at 24 h, 6.25 ug/ml [13]: 101%
viability at 24 h, 3.125 ug/ml [14]: 104%
viability at 24 h, 1.56 ug/ml [15]: 105%
viability at 24 h, 0.78 ug/ml [16]: 107%
Activity (Toxoplasma gondii [17]): 6.32%
Activity (Toxoplasma gondii [18]): 0.53%
Activity (Toxoplasma gondii [19]): 28.7%
Activity (Toxoplasma gondii [20]): 1.17%
Activity (Toxoplasma gondii [21]): 46.12%
Activity (Toxoplasma gondii [22]): 5.61%
Activity (Toxoplasma gondii [23]): 58.29%
Activity (Toxoplasma gondii [24]): 7.85%
Activity (Toxoplasma gondii [25]): 83.32%
Activity (Toxoplasma gondii [26]): 9.6%
Activity (Toxoplasma gondii [27]): 90.86%
Activity (Toxoplasma gondii [28]): 25.5%
Activity (Toxoplasma gondii [29]): 101.85%
Activity (Toxoplasma gondii [30]): 49.76%
Activity (Toxoplasma gondii [31]): 92.05%
Activity (Toxoplasma gondii [32]): 101.96%
Activity (Toxoplasma gondii [33]): 1.24%
selectivity ratio [1]: 25.7
IC50 (Toxoplasma gondii [2]): 8.74 µM
selectivity ratio [3]: 153
IC50 (Tyrosinase): 329 µM
IC50 [4]: 15.5 µM

Further lines, with some results ahead:

IC50 [4]: 15.9 µM
SMILES: O=c1oc2ccccc2cc1-c1csc(N/N=C/c2cc3ccccc3s2)n1
Ratio IC50 [5]: 10

IC50 (Tyrosinase): 431 µM
SMILES: Ic1ccc(-c2csc(N/N=C/c3cc4ccccc4s3)n2)cc1
CC30 (L929): 946.2 µM

IC50 (Tyrosinase): 396 µM
SMILES: Fc1ccc(-c2csc(N/N=C/c3cc4ccccc4s3)n2)cc1
CC30 (L929): 1385.75 µM

IC50 (Tyrosinase): 466 µM
SMILES: Cc1ccc(-c2csc(N/N=C/c3cc4ccccc4s3)n2)cc1
CC30 (L929): 884.28 µM

IC50 (Tyrosinase): 390 µM
SMILES: Clc1ccc(-c2csc(N/N=C/c3cc4ccccc4s3)n2)cc1
CC30 (L929): 1255.05 µM

IC50 (Tyrosinase): 433 µM
SMILES: Brc1ccc(-c2csc(N/N=C/c3cc4ccccc4s3)n2)cc1
CC30 (L929): 283.56 µM

Reference: ChEMBL document CHEMBL4406869, “Benzo[b]thiophene-thiazoles as potent anti-Toxoplasma gondii agents: Design, synthesis, tyrosinase/tyrosine hydroxylase inhibitors, molecular docking study, and antioxidant activity” (Eur J Med Chem, 2019)
